From PubChem BioAssay (NCI)
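At the GI50, growth is halved. TGI marks complete inhibition of growth.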

Legend:
Assay in all cases: NCI-60 cell line screen, 384-well format
NCI/ADR-RES ovarian = tested on: NCI/ADR-RES ovarian
OVCAR-3 ovarian = tested on: OVCAR-3 ovarian
UO-31 renal = tested on: UO-31 renal
SNB-19 CNS = tested on: SNB-19 CNS
ACHN renal = tested on: ACHN renal
EKVX NSCLC = tested on: EKVX NSCLC
NCI-H23 lung = tested on: NCI-H23 lung
UACC-257 melanoma = tested on: UACC-257 melanoma
A549 NSCLC = tested on: A549 NSCLC
OVCAR-8 ovarian = tested on: OVCAR-8 ovarian
U251 glioblastoma = tested on: U251 glioblastoma
786-0 renal = tested on: 786-0 renal
TK-10 renal = tested on: TK-10 renal
HT29 colon = tested on: HT29 colon
NCI-H226 lung = tested on: NCI-H226 lung
CCRF-CEM leukemia = tested on: CCRF-CEM leukemia
SK-MEL-5 melanoma = tested on: SK-MEL-5 melanoma
NCI-H522 lung = tested on: NCI-H522 lung
SF-539 CNS = tested on: SF-539 CNS
HCT-15 colon = tested on: HCT-15 colon
K-562 leukemia = tested on: K-562 leukemia
SF-295 CNS = tested on: SF-295 CNS
MCF7 breast = tested on: MCF7 breast
HOP-92 NSCLC = tested on: HOP-92 NSCLC
IGROV1 ovarian = tested on: IGROV1 ovarian
COLO 205 colon = tested on: COLO 205 colon
UACC-62 melanoma = tested on: UACC-62 melanoma
RXF 393 renal = tested on: RXF 393 renal
BT-549 breast = tested on: BT-549 breast
SN12C renal = tested on: SN12C renal
RPMI-8226 leukemia = tested on: RPMI-8226 leukemia
T-47D breast = tested on: T-47D breast
MDA-MB-231 breast = tested on: MDA-MB-231 breast
OVCAR-4 ovarian = tested on: OVCAR-4 ovarian
NCI-H460 NSCLC = tested on: NCI-H460 NSCLC
SK-MEL-28 melanoma = tested on: SK-MEL-28 melanoma
PC-3 prostate = tested on: PC-3 prostate
OVCAR-5 ovarian = tested on: OVCAR-5 ovarian
CAKI-1 renal = tested on: CAKI-1 renal
LOX IMVI melanoma = tested on: LOX IMVI melanoma
A498 renal = tested on: A498 renal
HOP-62 NSCLC = tested on: HOP-62 NSCLC
SK-OV-3 ovarian = tested on: SK-OV-3 ovarian
DU-145 prostate = tested on: DU-145 prostate
SNB-75 CNS = tested on: SNB-75 CNS
HCC-2998 colon = tested on: HCC-2998 colon
SF-268 CNS = tested on: SF-268 CNS
SR leukemia = tested on: SR leukemia
KM12 colon = tested on: KM12 colon
HL-60(TB) leukemia = tested on: HL-60(TB) leukemia
HS 578T breast = tested on: HS 578T breast
SW-620 colon = tested on: SW-620 colon
MOLT-4 leukemia = tested on: MOLT-4 leukemia
M14 melanoma = tested on: M14 melanoma
NCI-H322M lung = tested on: NCI-H322M lung
MDA-MB-435 melanoma = tested on: MDA-MB-435 melanoma
MALME-3M melanoma = tested on: MALME-3M melanoma
MDA-MB-468 breast = tested on: MDA-MB-468 breast

What does the source list for `Cc1sc2c(c1C)C(c1ccc(Cl)cc1)=N[C@@H](CC(=O)OC(C)(C)C)c1nnc(C)n1-2`?
GI50 (NCI/ADR-RES ovarian): 80.5 nM; TGI (NCI/ADR-RES ovarian): 839 nM; GI50 (OVCAR-3 ovarian): 86 nM; TGI (OVCAR-3 ovarian): 1070 nM; GI50 (UO-31 renal): 837 nM; TGI (UO-31 renal): 20600 nM; GI50 (SNB-19 CNS): 371 nM; TGI (SNB-19 CNS): 16200 nM; GI50 (ACHN renal): 560 nM; TGI (ACHN renal): 16900 nM; GI50 (EKVX NSCLC): 4610 nM; TGI (EKVX NSCLC): 20500 nM; GI50 (NCI-H23 lung): 148 nM; TGI (NCI-H23 lung): 3500 nM; GI50 (UACC-257 melanoma): 58.1 nM; TGI (UACC-257 melanoma): 1940 nM; GI50 (A549 NSCLC): 177 nM; TGI (A549 NSCLC): 13600 nM; GI50 (OVCAR-8 ovarian): 91.7 nM; TGI (OVCAR-8 ovarian): 1750 nM; GI50 (U251 glioblastoma): 1170 nM; TGI (U251 glioblastoma): 17900 nM; GI50 ([…]-0 renal): 118 nM; TGI (786-0 renal): 13800 nM; GI50 (TK-10 renal): 91.5 nM; TGI (TK-10 renal): 8290 nM; GI50 (HT29 colon): 82 nM; TGI (HT29 colon): 12600 nM; GI50 (NCI-H226 lung): 106 nM; TGI (NCI-H226 lung): 12300 nM; GI50 (CCRF-CEM leukemia): 230 nM; TGI (CCRF-CEM leukemia): 1680 nM; GI50 (SK-MEL-5 melanoma): 96.4 nM; TGI (SK-MEL-5 melanoma): 1910 nM; GI50 (NCI-H522 lung): 56 nM; TGI (NCI-H522 lung): 434 nM; GI50 (SF-539 CNS): 286 nM; TGI (SF-539 CNS): 12900 nM; GI50 (HCT-15 colon): 48.4 nM; TGI (HCT-15 colon): 371 nM; GI50 (K-562 leukemia): 139 nM; TGI (K-562 leukemia): 13500 nM; GI50 (SF-295 CNS): 815 nM; TGI (SF-295 CNS): 17300 nM; GI50 (MCF7 breast): 38.3 nM; TGI (MCF7 breast): 10300 nM; GI50 (HOP-92 NSCLC): 74.4 nM; TGI (HOP-92 NSCLC): 13600 nM; GI50 (IGROV1 ovarian): 160 nM; TGI (IGROV1 ovarian): 1190 nM; GI50 (COLO 205 colon): 100 nM; TGI (COLO 205 colon): 11500 nM; GI50 (UACC-62 melanoma): 43 nM; TGI (UACC-62 melanoma): 10500 nM; GI50 (RXF 393 renal): 1140 nM; TGI (RXF 393 renal): 17500 nM; GI50 (BT-549 breast): 51 nM; TGI (BT-549 breast): 869 nM; GI50 (SN12C renal): 3260 nM; TGI (SN12C renal): 19900 nM; GI50 (RPMI-8226 leukemia): 26.8 nM; TGI (RPMI-8226 leukemia): 74.7 nM; GI50 (T-47D breast): 293 nM; TGI (T-47D breast): 13200 nM; GI50 (MDA-MB-231 breast): 57.7 nM; TGI (MDA-MB-231 breast): 13700 nM; GI50 (OVCAR-4 ovarian): 42.1 nM; TGI (OVCAR-4 ovarian): 254 nM; GI50 (NCI-H460 NSCLC): 1040 nM; TGI (NCI-H460 NSCLC): 15000 nM; GI50 (SK-MEL-28 melanoma): 448 nM; TGI (SK-MEL-28 melanoma): 16700 nM; GI50 (PC-3 prostate): 744 nM; TGI (PC-3 prostate): 16500 nM; GI50 (OVCAR-5 ovarian): 183 nM; TGI (OVCAR-5 ovarian): 14500 nM; GI50 (CAKI-1 renal): 53.9 nM; TGI (CAKI-1 renal): 13000 nM; GI50 (LOX IMVI melanoma): 57.3 nM; TGI (LOX IMVI melanoma): 223 nM; GI50 (A498 renal): 197 nM; TGI (A498 renal): 9700 nM; GI50 (HOP-62 NSCLC): 71.9 nM; TGI (HOP-62 NSCLC): 10900 nM; GI50 (SK-OV-3 ovarian): 142 nM; TGI (SK-OV-3 ovarian): 6780 nM; GI50 (DU-145 prostate): 2220 nM; TGI (DU-145 prostate): 20100 nM; GI50 (SNB-75 CNS): 634 nM; TGI (SNB-75 CNS): 19100 nM; GI50 (HCC-2998 colon): 94.6 nM; TGI (HCC-2998 colon): 394 nM; GI50 (SF-268 CNS): 984 nM; TGI (SF-268 CNS): 19300 nM; GI50 (SR leukemia): 27.3 nM; TGI (SR leukemia): 252 nM; GI50 (KM12 colon): 322 nM; TGI (KM12 colon): 13200 nM; GI50 (HL-60(TB) leukemia): 23.3 nM; TGI (HL-60(TB) leukemia): 73.2 nM; GI50 (HS 578T breast): 30.7 nM; TGI (HS 578T breast): 266 nM; GI50 (SW-620 colon): 10100 nM; TGI (SW-620 colon): 21800 nM; GI50 (MOLT-4 leukemia): 201 nM; TGI (MOLT-4 leukemia): 1170 nM; GI50 (M14 melanoma): 447 nM; TGI (M14 melanoma): 17500 nM; GI50 (NCI-H322M lung): 241 nM; TGI (NCI-H322M lung): 14600 nM; GI50 (MDA-MB-435 melanoma): 599 nM; TGI (MDA-MB-435 melanoma): 10700 nM; GI50 (MALME-3M melanoma): 96.7 nM; TGI (MALME-3M melanoma): 2330 nM; GI50 (MDA-MB-468 breast): 37.3 nM; TGI (MDA-MB-468 breast): 109 nM
